Experimental data taken from patent US20200230205A1, “COMPOSITIONS AND METHODS FOR TREATING MYELIN DISORDERS” (CASE WESTERN RESERVE UNIVERSITY, priority 2017, published 2020).

Legend:
[1] = test system: aggrecan (CS56); assay: CSPG degradation by OPC conditioned media (CS56 spot quantification and western blot of aggrecan); type: cell-based, mouse; details: for aggrecan GAG digestion (CS56 immunoblot): Exo1 10 μg/mL, GM6001 25 μM or OA-Hy 100 nM with 2.5 μM ISP
Description: (§1) CSPG gradients were prepared as described previously (Tom, V. J., et al. Studies on the Development and Behavior of the Dystrophic Growth Cone, the Hallmark of Regeneration Failure, in an In vitro Model of the Glial Scar and after Spinal Cord Injury.). 24-well glass coverslip were coated with poly-L-lysine and nitrocellulose, and a mixture of 700 μg/mL aggrecan (A1960 Sigma) and 10 μg/mL laminin (11243217001 Sigma) spotted on the coated coverslip. After drying, coated coverslips were then incubated with laminin at 37° C. for 3h. Purified OPCs were plated at a density of 10,000/coverslip and cultured in DMEM/F12 medium containing with N2, PDGF (20 ng/ml), FGF (20 ng/ml), NT-3 (5 ng/ml), CNTF (O1 ng/ml), Glutamine (200 mM). Coverslips were stained with CS-56 (C8035, Sigma, 1:500) and O4 antibodies (Hybridoma Core Cleveland Clinic, 1:10). O4-positive cells crossing the aggrecan border were counted for each spot. For CSPG gradient quantification, 1×10^6 OPCs were plated per well on PLL, 1 μg/mL laminin, and 2 μg/mL aggrecan coated 6-well plates. OPCs treated with vehicle, 2.5 μM ISP, or 2.5 μM SISP for 2 days at 37° C. CM was harvested and incubated with freshly made spots. Spots were incubated with CM for 2 days at 37° C. then stained with CS-56 and laminin (L9393, Sigma, 1:1000) antibodies and consistently imaged. Using ImageJ software (NIH), pixel intensities of the CS-56 or laminin spot rims were quantified using the same ROI. For cultured spinal cord explant, the spinal cords of cervical and thoracic of P1 mouse pups were chopped into 1-2 mm tissue pieces and transferred to the coverslip. Explants were cultured in DMEM/F12 medium with 15% FBS (Hyclone), O1 ng/ml PDGF (Sigma) and N2 supplement (Invitrogen). For ISP treatment, 2.5 uM ISP was added to the media at the time of plating. 25 μM GM6001 (2983, Tocris), 100 nM MMP-2 inhibitor (444244, Calbiochem), and/or 2.5 μM ISP or SISP was used.
CM was harvested from 1×10^6 OPCs incubated on PLL, 1 μg/mL laminin, and 2 μg/mL aggrecan coated 6-well plates. OPCs were treated with vehicle, 2.5 μM ISP, or 2.5 μM SISP in conjunction with 10 μg/mL Exo1 (ab120292, Abcam), or 25 μM GM6001 (364205, Calbiochem) for 2 days at 37° C. […] CM of each cell-strained group was incubated with 20 μg/mL aggrecan and/or 10 μg/mL laminin for 2 hours in lmL Eppendorf tubes at 37° C. As a positive control, OPC media was incubated with aggrecan and incubated in the same fashion. Western blots were then performed as described below with incubation against CS-56 and/or laminin antibodies.

[2] = test system: oligodendrocyte progenitor cells (OPCs); assay: CSPG gradient crossing (spot) assay, OPC migration; type: cell-based, mouse; details: 25 μM GM6001 or 100 nM OA-Hy, even in the presence of ISP
Description: as §1

[3] = test system: organotypic cerebellar slice cultures; assay: LPC-induced demyelination in mouse cerebellar slice cultures; type: cell-based; details: 25 μM GM6001 or 100 nM OA-Hy in conjunction with 2.5 μM ISP, 9 days
Source text: We carried out the cerebellar slice culture method as described previously (Zhang, H., et al. Central nervous system remyelination in culture—A tool for multiple sclerosis research. Experimental Neurology 230, 138-148 (2011)). Briefly, 300 μm-thick cerebellar slices were cut from P10-12 mouse cerebellum using a Leica vibrating microtome (Leica, VT1000S) and cultured in medium containing 50% basal medium eagle medium, 25% Heat-inactivated horse serum, 25% Hank's solution, 2.5% glucose, 1% glutamine and penicillin-streptomycin. After 4 days in vitro (DIV), 0.5 mg/ml LPC were added for 17-18h to induce demyelination. Slices were then incubated with 2.5 μM ISP for 8 days. For GM6001 experiments, 25 μM GM6001 (Tocris) and/or 2.5 μM ISP or SISP was incubated for 9 days. Remyelination was examined by semi-quantitative Western blot of MBP and immunofluorescence stain of MBP and NeuF200.
Slices were fixed with 4% PFA, delipidated, and washed three times in PBS, blocked in PBS containing 0.1% Triton X-100 and 5% normal goat serum and incubated with anti-MBP (SMI-99P, Covance, 1:300), and anti-NeuF200 (N4142, Sigma, 1:250) antibodies overnight at 4° C. The slices were then washed in PBS and incubated in Alexa Fluor-conjugated secondary antibodies (1:500, invitrogen) for 2h. Slices were mounted in Vectashield mounting medium with DAPI (Vector Laboratories) and analyzed using Leica DFC500 fluorescence microscope.

[4] = test system: oligodendrocyte progenitor cells (OPCs); assay: Ki-67 proliferation and TUNEL apoptosis of OPCs on aggrecan/laminin; type: cell-based, mouse; details: 2.5 μM peptide, 2 div, laminin 1 and aggrecan 2 μg/mL, vs control
Description: To assess proliferation, OPCs were plated on 24-well coverslips that were precoated with PLL, 1 μg/mL laminin, and 2 μg/mL aggrecan. OPCs were treated with vehicle, 2.5 μM ISP or SISP immediately upon plating for 2 days at 37° C. Coverslips were fixed and stained using the same method described in the immunocytochemistry section with Ki-67 (550609, BD Pharmingen, 1:500) and O4 (1:10). Coverslips were imaged and counted. To assess apoptosis, OPCs were cultured in the same fashion and incubated with vehicle or 1 μg/mL LPC for 2 hours at 2 days following vehicle, 2.5 μM ISP or SISP incubation. Coverslips were then fixed with PFA and methanol then stained using APO-BrdU TUNEL assay kit (A23210, ThermoFisher) and guidelines with an O/N incubation of the primary antibody at RT. Coverslips were additionally costained with DAPI (D9542, Sigma, 1:10,000) then imaged and counted.

[5] = test system: MMP-10; assay: MMP-10 western blot of OPC conditioned media; type: cell-based, mouse; details: OPC CM, 2.5 μM peptide, same as vehicle
Description: To assess MMP-2 or 10 in OPC CM or lysates, OPCs were incubated on precoated PLL, aggrecan, and laminin as described above. OPCs were treated with vehicle, 2.5 μM ISP or SISP for 2 days at 37° C. CM was then harvested and concentrated using Milipore Ultracel YM-C centrifugal filter units at max speed (Eppendorf Centrifuge […]) for 30 minutes at 4° C. […] of concentrated CM was loaded into each lane. OPC lysates were assessed using western blot techniques described below with […] protein loaded from each group. Tissue samples or cerebellar slices or purified OPC cells were homogenized with RIPA lysis buffer and protein concentration was determined by Pierce BCA protein assay kit according to the manufacture instruction (Thermo Fisher). Then, equal amounts of protein were loaded to 15% SDS-PAGE gels, and electrophoretically transferred to PVDF membranes (Millipore). The membranes were blocked in 0.1% TPBS buffer with 5% non-fat milk for 1h at room temperature and probed with indicated primary antibodies overnight at 4° C. and followed by secondary antibody conjugated to horseradish peroxidase (HRP). […] Enhanced chemiluminescence was performed with a West Pico Kit (Thermo Fisher) and detected by FluorChem E system (ProteinSimple, USA). The density of bands was quantified using ImageJ software (NIH).

| Molecule | aggrecan GAG digestion (CS56 immunoblot) [1] | OPC entry into the CSPG-rich area [2] | colocalization of MBP and neurofilament+ axons [3] | CS56 spot degradation ([1]; 25 μM GM6001 or 100 nM OA-Hy with 2.5 μM ISP) | OPC proliferation (Ki67) [4] | MMP-10 secretion, western blot [5] |
| --- | --- | --- | --- | --- | --- | --- |
| COC(=O)c1ccccc1NC(=O)c1ccc(F)cc1 [Exo1] | partially rescued aggrecan GAG digestion |  |  |  |  |  |
| CNC(=O)[C@H](Cc1c[nH]c2ccccc12)NC(=O)[C@@H](CC(=O)NO)CC(C)C [GM6001] | partially rescued | effectively halted OPC entry | decreased | additionally rescued CS56 spot degradation |  |  |
| GRKKRRQRRRCIREDDSLMLYALAQEKKESNMHES [SISP, scrambled ISP control peptide, reference compound] |  |  |  |  | not significantly changed | equally low amounts |
